In ChEMBL document CHEMBL1201862, “PubChem BioAssay data set” (2004):
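How tested: cells in 96-well plates exposed to compound for 48 hours at five concentrations. The concentration for 50% growth inhibition is given as GI50.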 Active and inactive are the calls of the source. Rule as the data show it: active = GI50 up to about 1.1 µM and inactive = higher.

What was measured:
Experiment in all cases: NCI tumour cell line growth inhibition, 48 h
[1] = system: A498
[2] = system: 786-0
[3] = system: HCC 2998
[4] = system: MDA-MB-435
[5] = system: SK-MEL-5
[6] = system: NCI-H460
[7] = system: NCI/ADR-RES
[8] = system: UACC-257
[9] = system: BT-549
[10] = system: SF-539
[11] = system: HT-29
[12] = system: CAKI-1
[13] = system: U-251
[14] = system: SK-MEL-28
[15] = system: SNB-75
[16] = system: DU-145
[17] = system: LOX IMVI
[18] = system: OVCAR-3
[19] = system: TK-10
[20] = system: KM12
[21] = system: COLO 205
[22] = system: SNB-19
[23] = system: K562
[24] = system: Malme-3M
[25] = system: NCI-H226
[26] = system: SR
[27] = system: MDA-N
[28] = system: ACHN
[29] = system: RXF 393
[30] = system: HCT-15
[31] = system: Hs-578T
[32] = system: OVCAR-4
[33] = system: MCF7
[34] = system: HCT-116
[35] = system: HOP-62
[36] = system: MDA-MB-231
[37] = system: PC-3
[38] = system: A549
[39] = system: OVCAR-5
[40] = system: SF-268
[41] = system: NCI-H23
[42] = system: CCRF-CEM
[43] = system: IGROV-1
[44] = system: SN12C
[45] = system: MOLT-4
[46] = system: EKVX
[47] = system: OVCAR-8
[48] = system: UO-31
[49] = system: SF-295
[50] = system: SW-620
[51] = system: RPMI-8226
[52] = system: HOP-92
[53] = system: HL-60
[54] = system: NCI-H522

With `NC(=O)C(N)Cc1ccc(O)cn1` (centres undefined) the GI50 [1] was > 100 µM (inactive), the GI50 [2] was > 100 µM (inactive) and the GI50 [3] was > 100 µM (inactive). The GI50 [4] was > 100 µM (inactive), the GI50 [5] was > 100 µM (inactive) and the GI50 [6] was > 100 µM (inactive). The GI50 [7] was > 100 µM (inactive), the GI50 [8] was > 100 µM (inactive) and the GI50 [9] was > 100 µM (inactive). For the same compound, the GI50 [10] was > 100 µM (inactive), the GI50 [11] was > 100 µM (inactive) and the GI50 [12] was > 100 µM (inactive). For the same compound, the GI50 [13] was > 100 µM (inactive), the GI50 [14] was > 100 µM (inactive) and the GI50 [15] was > 100 µM (inactive). For the same compound, the GI50 [16] was > 100 µM (inactive), the GI50 [17] was > 100 µM (inactive) and the GI50 [18] was > 100 µM (inactive). For the same compound, the GI50 [19] was > 100 µM (inactive), the GI50 [20] was > 100 µM (inactive) and the GI50 [21] was > 100 µM (inactive). The GI50 [22] was > 100 µM (inactive), the GI50 [23] was > 100 µM (inactive) and the GI50 [24] was > 100 µM (inactive). The GI50 [25] was > 100 µM (inactive), the GI50 [26] was > 100 µM (inactive) and the GI50 [27] was > 100 µM (inactive). For the same compound, the GI50 [28] was > 100 µM (inactive), the GI50 [29] was > 100 µM (inactive) and the GI50 [30] was > 100 µM. The GI50 [31] was > 100 µM (inactive), the GI50 [32] was > 100 µM (inactive) and the GI50 [33] was > 100 µM (inactive). For the same compound, the GI50 [34] was > 100 µM (inactive), the GI50 [35] was > 100 µM (inactive) and the GI50 [36] was > 100 µM (inactive). For the same compound, the GI50 [37] was > 100 µM (inactive), the GI50 [38] was > 100 µM (inactive) and the GI50 [39] was > 100 µM (inactive). For the same compound, the GI50 [40] was > 100 µM (inactive), the GI50 [41] was > 100 µM (inactive) and the GI50 [42] was > 100 µM (inactive). The GI50 [43] was > 100 µM (inactive), the GI50 [44] was > 100 µM (inactive) and the GI50 [45] was > 100 µM (inactive). For the same compound, the GI50 [46] was > 100 µM (inactive), the GI50 [47] was > 100 µM (inactive) and the GI50 [48] was > 100 µM (inactive). For the same compound, the GI50 [49] was > 100 µM (inactive), the GI50 [50] was > 100 µM (inactive) and the GI50 [51] was > 100 µM (inactive). For the same compound, the GI50 [52] was > 100 µM (inactive), the GI50 [53] was > 100 µM (inactive) and the GI50 [54] was > 100 µM (inactive).
